Reference: a melting point compilation (Tetko et al.; mined from patent text by program, amines drawn as free bases though some values may be those of a salt)

In the case of `C=CCOC(=O)c1ccc(COC(=O)c2cc(C(C)(C)C)c(O)c(C(C)(C)C)c2)cc1`, the melting point is reported as 100 to 101 °C.
`C=CCN1CC(=O)C(C#N)=C1N` gave a melting point of 275 to 278 °C.
With `CCOc1cc(Cn2cc(CCC(=O)O)c(-c3ccccc3)c2)cc(OCc2nc(-c3ccccc3)oc2C)c1` the melting point was 126 to 127 °C.
Work on `CCCC(O)(CCC)c1ccc(Cl)c2nc3n(c12)CCCN3c1ccc(Cl)cc1Cl` yielded a melting point of 133 to 135 °C.
With `CN1C(=O)C(C)(C)c2ccc(C(=O)O)cc21` the melting point was 253 to 255 °C.
In the case of `CCOc1cc(CCC(=O)O)ccc1OCCCc1cn(-c2ccc(C(F)(F)F)cn2)nc1OCC`, the melting point is reported as 114 to 115 °C.
`COC(=O)c1ccc(C)c(-c2cc3cnc(NC4CCOCC4)nc3n(C)c2=O)c1` gave a melting point of 122 to 126 °C.
Molecule `CC(C)N(N=O)c1ccc(N(N=O)c2ccccc2)cc1` has a melting point of 85 to 89 °C.
With `N#Cc1cc(N)ccc1N1CCC(N2CCSCC2)CC1` the melting point was 138 °C.
Molecule `CCC1CCCCN1C(=O)C=Cc1c(-c2cccc(N)c2)nn2ccccc12` (stereo not given) has a melting point of 150 to 151 °C.
Work on `Cc1ccc(N)c(C(O)(C(F)(F)F)C(F)(F)F)c1` yielded a melting point of 110 °C.
Molecule `O=c1cc(-c2ccccc2)oc(=O)[nH]1` has a melting point of over 210 °C.
`N#Cc1c(N2CCN(C(=O)c3cccs3)CC2)c2cscc2[nH]c1=O` showed a melting point of 263 °C.
Molecule `CCOC(=O)COc1ccc([N+](=O)[O-])cc1C(F)(F)F` has a melting point of 45 to 46 °C.
`CCOC(=O)C=Cc1ccc([N+](=O)[O-])c(OC)c1` gave a melting point of 119 to 120 °C.
`COc1cc(Nc2c(C#N)cnc3cc(-c4ccc(CNCCS(=O)(=O)c5ccccc5)o4)ccc23)c(Cl)cc1Cl` showed a melting point of 123 to 128 °C.
Work on `CCCCCC[C@H](C)COC(=O)c1ccc(-c2ccc(O)cc2)cc1` yielded a melting point of 89 °C.
Molecule `O=C(Nc1ccc(-n2nc(C(F)(F)F)cc2C(F)(F)F)cc1)c1cc(F)c(Cl)cc1F` has a melting point of 160 to 162 °C.
Molecule `O=C(O)CC[C@H](NCC(O)C(O)C(O)C(O)CO)C(=O)O` (stereo not given in full) has a melting point of 94 °C.
Molecule `COC(=O)Cc1ccc(C2=CC(=O)c3ccccc3C2=O)n1C` has a melting point of 89 to 90 °C.
`CCOc1nn(-c2ccc(C(F)(F)F)cn2)cc1CCOc1ccc(CC(=O)O)cc1` gave a melting point of 142 to 143 °C.
In the case of `Cc1c2c(cn1CC(N)=O)CN=C(c1ccccc1Cl)c1cc(Cl)ccc1-2`, the melting point is reported as 142 to 145 °C.
With `C[C@@H](c1ccc(F)cc1)N1Cc2cncn2C(C)(c2ccc(C#N)cc2)C1=O` (stereo not given in full) the melting point was 78 to 82 °C.
Work on `O=C(O)c1ccc(C(=O)/C=C/c2ccc(-c3cccs3)cc2F)cc1` yielded a melting point of over 260 °C.
With `CSc1nnc(-c2cc(C(C)(C)C)c(O)c(C(C)(C)C)c2)s1` the melting point was 122 °C.
`NC1=C2C=NN=C2N(c2ccccc2)CN1Cc1ccccc1` gave a melting point of 167 to 168 °C.
For `CCNC(=O)CCCNC(=O)OC(C)(C)C`, the melting point was 82 to 83 °C.
`O=C(O)C(=O)c1c(Cl)cc(OCCOc2ccc3ccccc3c2)cc1Cl` gave a melting point of 155 to 156 °C.
Molecule `CNS(=O)(=O)Cc1ccc2[nH]ccc2c1` has a melting point of 127 to 129 °C.
For `O=C(O)CCCCCN(C(=O)c1ccc(Cl)cc1Cl)c1ccccc1-c1ccccc1`, the melting point was 112 to 113 °C.
With `Cc1noc(C)c1-c1cncc(OC2SCC(O)C(O)C2O)c1` (stereo not given) the melting point was 222 to 223 °C.
Molecule `CCCCOc1cc(-n2c(=O)cc(C(F)(F)F)n(C)c2=O)c(F)cc1Br` has a melting point of 73 °C.
`CCOC(=O)CC[C@H](NC(=O)c1ccc(C(C)=Cc2cnc3nc(N)nc(N)c3c2)cc1)C(=O)OCC` gave a melting point of over 300 °C.
In the case of `COc1cc(OCCOCc2ccccc2)cc2nc(-c3ccncc3)[nH]c(=O)c12`, the melting point is reported as 228 to 230 °C.
`FC(F)(F)C1(c2cc(Cl)cc(Cl)c2)CC(c2ccc(Br)c3ccccc23)=NO1` (stereo not given) gave a melting point of 127 to 130 °C.
`CCOC(=O)Cc1nc(-c2cc(C(C)(C)C)c(O)c(C(C)(C)C)c2)oc1C` gave a melting point of 103 to 105 °C.
`CC(C)Oc1cccc2oc(C(=O)O)cc12` showed a melting point of 148 to 150 °C.
Molecule `CN1CCN(C2=Nc3ccccc3Cc3nccn32)CC1` has a melting point of 123 to 124 °C.
Work on `CCc1noc(C)c1-c1[nH]c2ccccc2c1CCCCN(C)C` yielded a melting point of 156 to 158 °C.
In the case of `O=C1C(=CO)C(c2ccc(Cl)cc2)c2ccc(Cl)cc21` (stereo not given), the melting point is reported as 122 to 124 °C.
`OCc1ccc2cnn(-c3ccnc(N[C@H]4CC[C@H](O)CC4)n3)c2c1` gave a melting point of 216 to 218 °C.
With `CCC(=O)N(OC(=O)NC)C(=O)NC` the melting point was 90.5 to 92.5 °C.
Molecule `CC(=O)Oc1ccc(Cn2ncc(-c3ccc(S(C)(=O)=O)cc3)c(-c3ccc(F)cc3)c2=O)cc1` has a melting point of 172 to 174 °C.
`O=C(O)CCc1cc2cc(Cl)ccc2n1S(=O)(=O)c1ccc(-c2ccccc2)cc1` gave a melting point of 160 to 162 °C.
`Cc1c(C(=O)c2cnn(C)c2OCc2ccccc2)ccc(S(C)(=O)=O)c1C1=NOCC1` gave a melting point of 152 to 153 °C.
`CCOC(=O)c1ccc(Sc2cc3c(cc2C(C)C)C(C)(C)CCC3(C)C)cc1` gave a melting point of 99 to 100 °C.
For `O=c1[nH]c(N[N+](=O)[O-])ncc1Cc1ccco1`, the melting point was 183 to 184 °C.
With `O=[N+]([O-])c1cc(C(F)(F)F)cc([N+](=O)[O-])c1P(=O)(c1ccccc1)c1ccccc1` the melting point was 214 to 215 °C.
`COC(=O)c1sc2c(c1C)c1ccccc1n2Cc1ccccc1` showed a melting point of 132 to 134 °C.
Molecule `Cc1c(C)c2c(c(C)c1NC(=O)c1ccccc1)C(c1ccc(C(C)C)cc1)C(C)(C)O2` (stereo not given) has a melting point of 218 to 220 °C.
With `COc1cn(-c2ccc(N3CC(F)(F)C3)cc2F)nc(-c2ccnn2-c2ccccc2)c1=O` the melting point was 204 to 206 °C.
In the case of `Cn1cc(-c2ccc(Cl)c(Cl)c2)c(=O)c(-c2ccccc2Cl)c1`, the melting point is reported as 169 to 171 °C.
With `OC1CCC(Oc2ccc3[nH]ncc3c2)CC1` (stereo not given) the melting point was 112 to 118 °C.
For `O=C1c2ccccc2C(=O)N1Cc1cnc(Cl)s1`, the melting point was 108 to 109 °C.
Work on `CC(=O)c1ccc(C=C(Cl)Cl)s1` yielded a melting point of 81 to 85 °C.
Molecule `N#Cc1c(NCCCN2CCCC2)ncc2c1-c1ccccc1C(c1ccc(Cl)c(Cl)c1)C2` (stereo not given) has a melting point of 104 to 110 °C.
For `CCOC(=O)c1nc(Nc2ccccc2)sc1-c1ccncc1`, the melting point was 167 to 169 °C.
For `CN(C(=O)c1ccc(Nc2nccc(Nc3ccc(C(F)(F)F)cc3)n2)cc1)C1CCOCC1`, the melting point was 254 to 256 °C.
`O=c1c2c(c3cccnc3n1-c1ccccc1)OCCC2` showed a melting point of 253 to 255 °C.
Work on `Cc1cccc2c1N(C)C(=O)C(NC(=O)Nc1cccc(-c3nnn[nH]3)c1)N=C2C1CCCCC1` (stereo not given) yielded a melting point of 199 to 201 °C.
In the case of `COc1cccc(C(=O)Nc2cnn(Cc3c(C)noc3C)c2)c1`, the melting point is reported as 127 to 129 °C.
`CCCS(=O)(=O)c1ccc2c(c1)C1(O)C(C2)SC(=NCC)N1CC` (stereo not given) showed a melting point of 136 °C.
`COCCSc1cc(N)ncn1` gave a melting point of 78 to 80 °C.
`O=c1oc2cccnc2n1CCCN1CCN(c2cccc(C(F)(F)F)c2)CC1` showed a melting point of 62 to 63 °C.
`CCN(CC)c1ccc(-c2cc(-c3ccc(C(=O)O)cc3)ccc2CCCNC(C)(C)C)cc1C(C)(C)C` gave a melting point of 273 °C.
For `Nc1cc(N2CC(COCc3ccccc3)OC2=O)ccn1` (stereo not given), the melting point was 122 to 123 °C.
`CC(Cc1ccccc1)(NC(=O)OC1CCCCc2ccccc21)C(=O)NCCCCCCCCC(N)=O` (stereo not given) showed a melting point of 98 to 100 °C.
With `CSc1ccc(C(=O)Nc2ccccc2)cc1Nc1cccc(C(F)(F)F)c1` the melting point was 169 to 170 °C.
`O=C[C@H](Cc1c[nH]c2ccccc12)NC(=O)[C@H](Cc1ccccc1)NC(=O)OCc1ccccc1` gave a melting point of 74 to 77 °C.
`CCC(CC)N(O)C(=O)Nc1ccc(Cc2ccccc2)cc1` showed a melting point of 132 to 134 °C.
